Results from PMC9369311, “Examination of Intracellular GPCR-Mediated Signaling with High Temporal Resolution” (International Journal of Molecular Sciences, 2022).
Values joined by “and” are separate entries in the source; they are usually repeats but may differ in a detail not shown here. Equal values may be shown once.

Target: T1, DmOctβ1 receptor (Drosophila melanogaster, UniProt Q9VCZ3)
T1 construct: expressed in transfected cells; host or cells: flpTM cells (HEK293 flpIn, Invitrogen #750-07, carrying the CNGA2 variant)
T1 sequence (Q9VCZ3 1-508): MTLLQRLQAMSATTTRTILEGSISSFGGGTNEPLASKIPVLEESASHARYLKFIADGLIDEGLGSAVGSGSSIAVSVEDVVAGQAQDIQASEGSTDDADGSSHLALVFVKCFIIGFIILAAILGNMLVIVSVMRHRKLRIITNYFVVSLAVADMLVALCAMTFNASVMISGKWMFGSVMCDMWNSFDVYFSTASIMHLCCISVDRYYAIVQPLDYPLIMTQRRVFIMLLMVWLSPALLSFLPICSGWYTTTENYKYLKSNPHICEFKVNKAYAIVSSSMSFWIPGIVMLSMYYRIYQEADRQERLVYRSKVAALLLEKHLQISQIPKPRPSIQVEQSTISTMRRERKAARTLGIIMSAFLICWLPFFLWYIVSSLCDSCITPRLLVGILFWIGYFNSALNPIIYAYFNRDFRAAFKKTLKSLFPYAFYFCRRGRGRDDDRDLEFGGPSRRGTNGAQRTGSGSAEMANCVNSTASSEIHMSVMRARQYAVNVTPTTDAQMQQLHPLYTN
Assay: Stopped-flow Ca2+ fluorescence measurements, flpTM-DmOctβ1 cells, octopamine
Assay type: cell-based
Procedure: In successive stopped-flow measurements, the flpTM-DmOctβ1 cells loaded with Fluo-4 were stimulated with increasing octopamine (1 nM–3 µM) and NKH477 (100 nM–300 µM) concentrations. The fluorescence intensities were monitored over 80 s and 100 s, respectively (Figure 4A1,B1). The fluorescence intensities increased and finally reached a plateau with increasing concentrations of both of the ligands. However, the saturating ligand concentrations differed strongly between octopamine (≥300 nM) and NKH477 (≥100 µM). By plotting the maximal changes in fluorescence (ΔF/F0) against ligand concentrations, concentration–response curves were generated and EC50 values were calculated (Figure 4C). […] As observed for the DmOctα1B cell lines (see Figure 3D), the signal response times of flpTM-DmOctβ1 cells were faster at higher ligand concentrations (Figure 4A2,B2). In Figure 4D, the time until the signals were detected (for details, see Materials and Methods, Section 4.4) are plotted for the ligand concentrations covering the calculated EC50 value (dynamic range) and for saturating concentrations (saturating range). The signal response times of the flpTM-DmOctβ1 cells for octopamine were in the range of 30 s (dynamic range) and 6 s (saturating range), whereas the signal detection upon NKH477 application was observed after 50 s (dynamic range) and 16 s (saturating range). The signal response times were about three- to five-fold faster at the saturating concentrations in comparison to the octopamine and NKH477 concentrations in the dynamic range.
As described for the Fluo-4-loaded flpTM-DmOctβ1 cells, similar experiments were performed with the flpTM-DmOctβ1-GCaMP3.0 cells (Figure 5). The cells were successively mixed with increasing concentrations of octopamine (30 pM–100 nM) or NKH477 (30 nM–100 µM) and the fluorescence intensities were recorded over 100 s. For both of the ligands, increasing ligand concentrations led to an increase in the fluorescence emission finally reaching a plateau (Figure 5A1,B1).
For the stopped-flow measurements, the SFM-400 system (BioLogic, Münster, Germany) was used. The main component of the stopped-flow setup is the SFM-400 module with four 10 mL syringes, which can be filled by external valves. The syringes are driven by step motors. The reactants can be mixed in three individual mixing chambers (M1–M3). The volume between M1 and M2 is 21 µL, and 31 µL between M2 and M3. The observation chamber is a quartz cuvette (FC-15) with a reaction volume of 31 µL, installed behind M3. To avoid fluctuations of the reaction mixture in the cuvette, which might lead to noisy and inconsistent signals, a hard stop valve located behind the cuvette can be closed after injection of the reactants. The stopped-flow module is controlled via a MPS-60 control unit (BioLogic). Data acquisition and operation of the system were performed with the Bio-Kine 32 v4.74 software (BioLogic).
The reactions in the cuvette were analyzed via the changes in the fluorescence. A 150 W Xe/Hg-lamp (ALX-220; BioLogic) was used as a light source for the excitation. The excitation light was guided via a light guide towards the cuvette. To determine the wavelength of the excitation light, a 482 nm bandpass filter (482/35 nm BrightLine® single-band bandpass filter; Semrock, Rochester, NY, USA) was used. A heat protection filter (3 mm; KG1, Schott; Mainz, Germany) was placed between the Xe/Hg-lamp and the excitation filter. The fluorescence was detected with a photomultiplier (PMS 200, BioLogic) installed rectangularly to the light path of the excitation light. Between the cuvette and the photomultiplier tube a 535 nm bandpass emission filter (XF3007 535AF35; Horiba, Oberursel, Germany) was placed to select for the emission light being detected by the photomultiplier. A voltage of 600 V was applied to the photomultiplier.
The fluorescence measurements were performed either directly with the cells expressing GCaMP3.0 or after loading the cells with Fluo-4-AM. […]

Signal Response Time (dynamic range (concentrations around EC50), flpTM-DmOctβ1 cells loaded with Fluo-4): ~30 s
Signal Response Time (saturating concentration, flpTM-DmOctβ1-GCaMP3.0 cells, mean ± SEM): ~6 s
Signal Response Time (saturating concentration, flpTM-DmOctβ1-GCaMP3.0 cells, mean ± SEM, listed as Octopamine): 6.00 ± 0.20 s
Signal Response Time (saturating concentration, flpTM-DmOctβ1 cells loaded with Fluo-4, mean ± SEM): ~6 s
Signal Response Time (saturating concentration, flpTM-DmOctβ1 cells loaded with Fluo-4, mean ± SEM, listed as Octopamine): 6.00 ± 0.13 s
Signal Response Time (saturating ligand concentration, flpTM-DmOctβ1 cell lines, Fluo-4 and GCaMP3.0): 6 s and ≈ 6 s
EC50 (stopped-flow, flpTM-DmOctβ1-GCaMP3.0 cells, mean ± SEM): ~1.8 nM and 1.78 nM and 1.8 nM
saturating ligand concentration (stopped-flow, flpTM-DmOctβ1 cells loaded with Fluo-4): ≥ 300 nM
EC50 (stopped-flow, flpTM-DmOctβ1 cells loaded with Fluo-4, mean ± SEM): ~22 nM and 22 nM
Compound: NCC(O)c1ccc(O)cc1 (stereo not drawn) [octopamine]
